In patent publication US10344034B2, “Pyrazolopyrimidone or Pyrrolotriazone derivatives, method of preparing same, and pharmaceutical applications thereof” (Shanghai Hengrui Pharmaceutical Co., Ltd., priority 2013, dated 2019):

How the values were obtained:
[1] = In vivo pharmacodynamics test in rabbit endometriosis model; details: female, New Zealand, rabbit, in vivo, po
Description: (§2) Fifteen (15) healthy New Zealand rabbits (female) were evenly designated into 3 groups.
(§3) Rabbits were adaptive fed and quarantined for seven days, and subcutaneously injected with 30 μg/kg of estradiol benzoate once daily for two days before surgery. When the model was established, rabbits were anesthetized with 3% sodium pentobarbital, and laparotomized sterilely. Then, one side of the uterus was separated and ligated with the uterine mesorectum vessel. Then, a section of the uterus was cut off and put into a warm saline dish, and then dissected longitudinally and the myometrium and endometrium were separated. A section of endometrium (about 0.5 cm by0.5 cm) was seamed to the abdominal wall rich in blood vessels with the intimal surface facing toward the abdominal cavity. Three weeks after endometrium planting, the rabbits were laparotomized to check graft intimal size. […] Each group was administered by oral gavage once a day in a volume of 5 ml/kg, continuously for 28 days after successful modeling. Ultimately, the rabbit was weighed and the volume of ectopic endometrium was measured to evaluate the effect of the present compound on the endometrial activity.

[2] = tested on: rabbit endometriosis model; assay: as above
Description: as §2, §3

[3] = Rabbit pharmacokinetics assay; format: in vivo, New Zealand rabbits; details: for AUC: read-out: Area under curve AUC; for half-life: read-out: Half-life T1/2 (converted); for MRT: read-out: Residence time MRT
Description: Test Example 5. Rabbit Pharmacokinetics Assay of Example 11 of the Present Invention
(§1) Rabbits were used as test animals. The plasma concentrations at various times were determined by LC/MS/MS after intragastric administration of the compound of Example 11, and intravenous administration of the compound of Example 11 to rabbits. The pharmacokinetic behavior of the present compound in rabbits was studied, and the pharmacokinetic features were evaluated.
Six (6) healthy New Zealand Rabbits (female) were evenly designated into 2 groups. The animals were purchased from Jie Sijie Corp. Ltd.
An appropriate amount of sample was weighed, and added with 0.5% CMC-Na to form […] suspension upon ultrasonic treatment.
Appropriate amounts of drugs were weighed, and dissolved with 1 ml DMSO and 1 ml of Tween 80. Saline solution was added to the final volume.
Six (6) healthy New Zealand rabbits (female) were evenly designated into 2 groups, and administered by oral gavage or intravenous injection (i.v.) (oral gavage at a dosage of 30 mg/kg with an administration volume of 5 ml/kg, and i.v. at a dosage of 5 mg/kg with an administration volume of 2 ml/kg) after fasting overnight.
0.2 ml of blood was sampled before and 5 minutes, 0.25, 0.5, 1, 2, 4, 8, 11, 24 hours after intravenous administration, collected in a heparinized test tube, and centrifuged at 3500 rpm for 10 minutes to separate the plasma, which was stored at −20° C. Blood was sampled before, and 0.5, 1, 2, 4, 6, 8, 11, and 24 hours after oral administration, and treated the same as that of the intravenous administration group. The content of the test compound in the plasma of rabbits after administration of the compound by oral gavage and intravenous injection was determined by LC/MS/MS.

[4] = Beagle pharmacokinetics assay; format: in vivo, beagles; details: for AUC: read-out: Area under curve AUC; for half-life: read-out: Half-life T1/2 (converted); for MRT: read-out: Residence time MRT
Description: Test Example 6. Beagle Pharmacokinetics Assay of Example 11 of the Present Invention
as §1, with “Beagles” for “Rabbits”, “beagles.” for “rabbits.”, “beagles” for “rabbits”
Eight (8) healthy beagles (half female and half male) were evenly designated into 2 groups. The animals were purchased from SuzhouXishan Zhongke Laboratory Animal Corp. Ltd.
An appropriate amount of sample was weighed, and added with 0.5% CMC-Na to form a 1.0 mg/ml suspension upon ultrasonic treatment;
Appropriate amounts of drugs were weighed, and dissolved with 5 ml DMSO and 5 ml of Tween 80. Saline solution was added to the final volume.
Eight (8) healthy beagles (half female and half male) were evenly designated into 2 groups, and administered by oral gavage or intravenous injection (i.v.) (oral gavage at a dosage of 5 mg/kg with an administration volume of 5 ml/kg, and i.v. at a dosage of 2 mg/kg with an administration volume of 2 ml/kg) after fasting overnight.
1.0 ml of blood was sampled from the foreleg vein before, and 0.25, 0.5, 1, 2, 4, 6, 8, 12, and 24 hours after oral administration, collected in a heparinized test tube, and centrifuged at 3500 rpm for 10 minutes to separate the plasma, which was stored at −20° C. The animals were allowed access to feed 2 hours after administration. Blood was sampled before, and 5 minutes, 0.25, 0.5, 1, 2, 4, 6, 8, 12, and 24 hours after intravenous administration, and treated the same as above. The content of the test compound in the plasma of beagles after administration of the compound by oral gavage and intravenous injection was determined by LC/MS/MS.

[5] = female, New Zealand, plasma, intravenous injection 5 mg/kg
[6] = female, New Zealand, plasma, oral 30 mg/kg
[7] = both sexes, dog, plasma, iv, i.v. 2 mg/kg
[8] = both sexes, dog, plasma, oral 5 mg/kg

SMILES: CONC(=O)Nc1ccc(-n2nc3c(c2CN(C)C)c(=O)n(-c2ccc(OC)nn2)c(=O)n3Cc2c(F)cccc2F)cc1 [Example 11, 1-(4-(7-(2,6-difluorobenzyl)-3-((dimethylamino)methyl)-5-(6-methoxypyridazin-3-yl)-4,6-dioxo-4,5,6,7-tetrahydro-2H-pyrazolo[3,4-d]pyrimidin-2-yl)phenyl)-3-methoxyurea]
- NOAEL at 28 days [1]: 30 mg/kg
- inhibition for the ectopic endometrial volume ([2]; 10 mg/kg oral once a day for 4 weeks): not obvious
- growth of ectopic endometrium ([2]; 30 mg/kg oral once a day for 4 weeks, vs 0.5% CMC-Na control): significantly inhibited
- AUC [3, 5]: 3410 ± 832 ng·h/mL
- half-life [3, 5]: 4.6 ± 2.7 h
- MRT [3, 5]: 2.39 ± 0.3 h
- Vd/F ([3]; female, New Zealand, plasma, oral 30 mg/kg, read-out: Apparent volume of distribution Vz/F): 10.7 ± 3.86 L/kg
- AUC [3, 6]: 19000 ± 2310 ng·h/mL
- CL/F ([3]; female, New Zealand, plasma, oral 30 mg/kg, read-out: Clearance rate CL/F): 26.6 ± 3.4 mL/min/kg
- half-life [3, 6]: 4.57 ± 1.06 h
- Cmax ([3]; female, New Zealand, plasma, oral 30 mg/kg, read-out: Plasma concentration Cmax): 5040 ± 776 ng/mL
- MRT [3, 6]: 3.94 ± 0.55 h
- Apparent volume of distribution Vz/F ([3]; intravenous injection 5 mg/kg): 10.948 ± 7.749 L/kg
- Clearance rate CL/F ([3]; intravenous injection 5 mg/kg): 25.3 ± 5.5 mL/min/kg
- AUC [4, 7]: 2300 ± 213 ng·h/mL
- half-life [4, 7]: 3.34 ± 0.4 h
- MRT [4, 7]: 4.02 ± 0.5 h
- Vd/F ([4]; both sexes, dog, plasma, oral 5 mg/kg, read-out: Apparent volume of distribution Vz/F): 7.25 ± 4.37 L/kg
- AUC [4, 8]: 5940 ± 1340 ng·h/mL
- CL/F ([4]; both sexes, dog, plasma, oral 5 mg/kg, read-out: Clearance rate CL/F): 14.7 ± 4.2 mL/min/kg
- half-life [4, 8]: 5.37 ± 1.52 h
- Cmax ([4]; both sexes, dog, plasma, oral 5 mg/kg, read-out: Plasma concentration Cmax): 1090 ± 350 ng/mL
- MRT [4, 8]: 6.4 ± 2.82 h
- Apparent volume of distribution Vz/F ([4]; i.v. 2 mg/kg): 4.235 ± 0.706 L/kg
- Clearance rate CL/F ([4]; i.v. 2 mg/kg): 14.6 ± 1.3 mL/min/kg
